Results on 21 molecules are retold here after patent US20150011541A1, “PIPECOLATE-SULFONAMIDES FOR TREATMENT OF PSYCHIATRIC DISORDERS” (Max-Planck-Gesellschaft zur Förderung der Wissenschaften …, priority 2011, published 2015).

Where two headings read alike, the source gives them in different places.

One experiment concerns the target T1, human FKBP52FK1 (Homo sapiens, UniProt Q02790).
T1 sequence (Q02790 50-138 limits assumed): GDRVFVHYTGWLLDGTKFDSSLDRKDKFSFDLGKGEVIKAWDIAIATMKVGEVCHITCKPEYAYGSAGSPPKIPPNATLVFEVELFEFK
Put plainly: Fluorescence polarization assay, binding to FK1 domain of FKBP52. The following applies: for IC50: binding affinity, fluorescence polarization assay; for inhibition at 5 µM: read-out: FKBP52 FK1 % inhibition. For orientation: Polarisation of emitted light reports the rotation of a fluorescent probe.

The target of another experiment is T2, human FKBP51FK1 (Homo sapiens, UniProt Q13451).
T2 sequence (Q13451 42-130 limits assumed): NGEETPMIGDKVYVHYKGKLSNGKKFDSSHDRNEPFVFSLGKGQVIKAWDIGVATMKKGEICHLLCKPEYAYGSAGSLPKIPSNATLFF
Put plainly: Fluorescence polarization assay, binding to FK1 domain of FKBP51. Conditions: for IC50: binding affinity, fluorescence polarization assay; for inhibition at 5 µM: read-out: FKBP 51 FK1 % inhibition.

Where [1] appears, read: at a concentration of 5 μM, library testing.

The IC50 is the concentration that inhibits the measured activity by half. A high value points to weaker potency. For the molecule `COc1ccc(CC[C@@H](OC(=O)[C@@H]2CCCCN2S(=O)(=O)c2ccc3[nH]c(=O)sc3c2)c2cccc(OCCN3CCOCC3)c2)cc1OC` [Compound 35, (S)-((R)-3-(3,4-dimethoxyphenyl)-1-(3-(2-morpholinoethoxy)phenyl)propyl)1-(2-oxo-2,3-dihydrobenzo[d]thiazol-6-ylsulfonyl)piperidine-2-carboxylate], the figures for the IC50 on human FKBP52FK1 and at human FKBP51FK1 were 2.5 ± 0.38 µM and 1.3 ± 0.13 µM, respectively.
By inhibition is commonly meant the relative decrease from the control value, in per cent. For the molecule `COc1ccc(CC[C@@H](OC(=O)[C@@H]2CCCCN2S(=O)(=O)c2ccc3c(ccn3C)c2)c2cccc(OCC(=O)O)c2)cc1OC` [Compound 50, 2-(3-((R)-3-(3,4-dimethoxyphenyl)-1-((S)-1-(1-methyl-1H-indol-5-ylsulfonyl)piperidine-2-carbonyloxy)propyl)phenoxy)acetic acid], the inhibition at 5 µM at human FKBP52FK1 (setting [1]) was 10.4%; at human FKBP51FK1 (setting [1]) it was 10%.
`COc1ccc(CC[C@@H](OC(=O)[C@@H]2CCCCN2S(=O)(=O)c2cc(Cl)c(NC(C)=O)c(Cl)c2)c2cccc(OCC(=O)O)c2)cc1OC` [Compound 23, 2-(3-((R)-1-((S)-1-(4-acetamido-3,5-dichlorophenylsulfonyl)piperidine-2-carbonyloxy)-3-(3,4-dimethoxyphenyl)propyl)phenoxy)acetic acid]: the half-maximal inhibitory concentration (IC50) on human FKBP52FK1 was 15.6 ± 2.2 µM; at human FKBP51FK1 it was 8.9 ± 0.9 µM.
Taken in the same sequence, the figures for `COc1ccc(CC[C@@H](OC(=O)[C@@H]2CCCCN2S(=O)(=O)c2cc(Cl)c(O)c(Cl)c2)c2cccc(OCC(=O)O)c2)cc1OC` [Compound 21, 2-(3-((R)-1-((S)-1-(3,5-dichloro-4-hydroxyphenylsulfonyl)piperidine-2-carbonyloxy)-3-(3,4-dimethoxyphenyl)propyl)phenoxy)acetic acid] were 56.6 ± 12.2 µM and 15.1 ± 1.4 µM.
In the case of `COc1ccc(CC[C@@H](OC(=O)[C@@H]2CCCCN2S(=O)(=O)c2ccccc2Cl)c2cccc(OCC(=O)O)c2)cc1OC` [Compound 45, 2-(3-((R)-1-((S)-1-(2-chlorophenylsulfonyl)piperidine-2-carbonyloxy)-3-(3,4-dimethoxyphenyl)propyl)phenoxy)acetic acid], the inhibition at 5 µM at human FKBP52FK1 (setting [1]) came out at 9.5%; at human FKBP51FK1 (setting [1]), 1.4%.
Take `O=C(OCCCc1cccnc1)C1CCCCN1S(=O)(=O)c1cccc([N+](=O)[O-])c1` (centres unmarked) [Ref. 4, 3-(pyridin-3-yl)propyl 1-(3-nitrophenylsulfonyl)piperidine-2-carboxylate, reference compound]: the IC50 on human FKBP52FK1 and on human FKBP51FK1 was over 100 µM each time.
As to `COc1ccc(CC[C@@H](OC(=O)[C@@H]2CCCCN2S(=O)(=O)c2cc3c(c([N+](=O)[O-])c2)OCC3)c2cccc(OCC(=O)O)c2)cc1OC` [Compound 25, 2-(3-((R)-3-(3,4-dimethoxyphenyl)-1-((S)-1-(7-nitro-2,3-dihydrobenzofuran-5-ylsulfonyl)piperidine-2-carbonyloxy)propyl)phenoxy)acetic acid], the IC50 was 43.9 ± 10.1 µM on human FKBP52FK1 and 27.2 ± 3.1 µM at human FKBP51FK1.
Taken in the same sequence, the figures for `COc1ccc(CC[C@@H](OC(=O)[C@@H]2CCCCN2S(=O)(=O)c2ccc3nc(C)sc3c2)c2cccc(OCC(=O)O)c2)cc1OC` [Compound 27, 2-(3-((R)-3-(3,4-dimethoxyphenyl)-1-((S)-1-(2-methylbenzo[d]thiazol-6-ylsulfonyl)piperidine-2-carbonyloxy)propyl)phenoxy)acetic acid] were 26.5 ± 4.9 µM and 18.4 ± 1.4 µM.
For the molecule `COc1ccc(CC[C@@H](OC(=O)[C@@H]2CCCCN2S(=O)(=O)c2csc3ccccc23)c2cccc(OCC(=O)O)c2)cc1OC` [Compound 57, 2-(3-((R)-1-((S)-1-(benzo[b]thiophen-3-ylsulfonyl)piperidine-2-carbonyloxy)-3-(3,4-dimethoxyphenyl)propyl)phenoxy)acetic acid], the results for the inhibition at 5 µM at human FKBP52FK1 (setting [1]) and on human FKBP51FK1 (setting [1]) were 4.7% and 3.2%, respectively.
On to “2-(3-((R)-1-((S)-1-(3-cyanophenylsulfonyl)piperidine-2-carbonyloxy)-3-(3,4-dimethoxyphen-yl)propyl)phenoxy)acetic acid [Compound 6]”, for which the IC50 at human FKBP52FK1 turned out to be 69.9 ± 65.4 µM; at human FKBP51FK1 it was 28.5 ± 9.6 µM.
As to `COc1ccc(CC[C@@H](OC(=O)[C@@H]2CCCCN2S(=O)(=O)c2cccc(-c3nnc(C)o3)c2)c2cccc(OCC(=O)O)c2)cc1OC` [Compound 47, 2-(3-((R)-3-(3,4-dimethoxyphenyl)-1-((S)-1-(3-(5-methyl-1,3,4-oxadiazol-2-yl)phenylsulfonyl)piperidine-2-carbonyloxy)propyl)phenoxy)acetic acid], the inhibition at 5 µM was found to be 3.8% on human FKBP52FK1 (setting [1]) and 4.9% at human FKBP51FK1 (setting [1]).
In the case of “2-(3-((R)-1-((S)-1-(benzo[d]thiazol-5-ylsulfonyl)piperidine-2-carbonyloxy)-3-(3,4-dimethoxy phenyl)propyl)phenoxy)acetic acid [Compound 3]”, the “FKBP52 FK1 % inhibition” value at human FKBP52FK1 (setting [1]) worked out at 16.1%. Moreover, the results for the IC50 at human FKBP52FK1 and on human FKBP51FK1 were 32.5 ± 3.5 µM and 11.6 ± 1.1 µM, respectively. Also, the “FKBP 51 FK1 % inhibition” value at human FKBP51FK1 (setting [1]) was 25.5%.
For the molecule `COc1ccc(CC[C@@H](OC(=O)[C@@H]2CCCCN2S(=O)(=O)c2cc(Cl)c(O)c(Cl)c2)c2cccc(OCCN3CCOCC3)c2)cc1OC` [Compound 33, (S)-((R)-3-(3,4-dimethoxyphenyl)-1-(3-(2-morpholinoethoxy)phenyl)propyl)1-(3,5-dichloro-4-hydroxyphenylsulfonyl)piperidine-2-carboxylate], the IC50 at human FKBP52FK1 worked out at 0.71 ± 0.1 µM; on human FKBP51FK1, 0.456 ± 0.05 µM.
For the molecule `COc1ccc(CC[C@@H](OC(=O)[C@@H]2CCCCN2S(=O)(=O)c2ccc(C(F)(F)F)c(Cl)c2)c2cccc(OCC(=O)O)c2)cc1OC` [Compound 48, 2-(3-((R)-1-((S)-1-(3-chloro-4-(trifluoromethyl)phenylsulfonyl)piperidine-2-carbonyloxy)-3-(3,4-dimethoxyphenyl)propyl)phenoxy)acetic acid], the inhibition at 5 µM was 11.4% on human FKBP52FK1 (setting [1]) and -0.2% at human FKBP51FK1 (setting [1]).
Taken in the same sequence, the figures for `COc1ccc(CC[C@@H](OC(=O)[C@@H]2CCCCN2S(=O)(=O)c2ccc(C(F)(F)F)cc2)c2cccc(OCC(=O)O)c2)cc1OC` [Compound 40, 2-(3-((R)-3-(3,4-dimethoxyphenyl)-1-((S)-1-(4-(trifluoromethyl)phenylsulfonyl)piperidine-2-carbonyloxy)propyl)phenoxy)acetic acid] were 12.3% and 8.9%.
As for `COc1ccc(CCCOC(=O)C2CCCCN2S(=O)(=O)Cc2ccccc2)cc1OC` (centres unmarked) [Ref. 3, 3-(3,4-dimethoxyphenyl)propyl 1-(benzylsulfonyl)piperidine-2-carboxylate, reference compound], the half-inhibitory concentration (IC50) on human FKBP52FK1 and at human FKBP51FK1 was over 100 µM throughout.
As to `CCOC(=O)C1CCCCN1S(=O)(=O)Cc1ccccc1` (centres unmarked) [Ref. 1, Ethyl 1-(benzylsulfonyl)piperidine-2-carboxylate, reference compound], the half-maximal inhibitory concentration (IC50) on human FKBP52FK1 and on human FKBP51FK1 was over 100 µM throughout.
`COc1ccc(CC[C@@H](OC(=O)[C@@H]2CCCCN2S(=O)(=O)c2ccc(Cl)cc2)c2cccc(OCC(=O)O)c2)cc1OC` [Compound 36, 2-(3-((R)-1-((S)-1-(4-chlorophenylsulfonyl)piperidine-2-carbonyloxy)-3-(3,4-dimethoxyphenyl)propyl)phenoxy)acetic acid]: the inhibition at 5 µM at human FKBP52FK1 was 15.2%; at human FKBP51FK1, 11.7%.
With `COc1ccc(CC[C@@H](OC(=O)[C@@H]2CCCCN2S(=O)(=O)c2cccs2)c2cccc(OCC(=O)O)c2)cc1OC` [Compound 55, 2-(3-((R)-3-(3,4-dimethoxyphenyl)-1-((S)-1-(thiophen-2-ylsulfonyl)piperidine-2-carbonyloxy)propyl)phenoxy)acetic acid], the inhibition at 5 µM came to 8.5% at human FKBP52FK1 (setting [1]) and 3.2% on human FKBP51FK1 (setting [1]).
As for `COc1ccc(CC[C@@H](OC(=O)[C@@H]2CCCCN2S(=O)(=O)c2ccc(Oc3ccccc3)cc2)c2cccc(OCC(=O)O)c2)cc1OC` [Compound 41, 2-(3-((R)-3-(3,4-dimethoxyphenyl)-1-((S)-1-(4-phenoxyphenylsulfonyl)piperidine-2-carbonyloxy)propyl)phenoxy)acetic acid], the inhibition at 5 µM worked out at 15.2% on human FKBP52FK1 (setting [1]) and 7.2% at human FKBP51FK1 (setting [1]).
In the case of `COc1ccc(CC[C@@H](OC(=O)[C@@H]2CCCCN2S(=O)(=O)c2cccc(Br)c2)c2cccc(OCC(=O)O)c2)cc1OC` [Compound 12, 2-(3-((R)-1-((S)-1-(3-bromophenylsulfonyl)piperidine-2-carbonyloxy)-3-(3,4-dimethoxyphenyl)propyl)phenoxy)acetic acid], the values for the IC50 at human FKBP52FK1 and at human FKBP51FK1 were 17.1 ± 11 µM and 3.06 ± 0.25 µM, respectively.
